Laboratory results published in patent US20120245201A1, “Isopropylphenidate for Treatment of Attention-Deficit/Hyperactivity Disorder and Fatigue-Related Disorders and Conditions” (priority 2009, published 2012).

What was measured:
[1] = tested on: NE uptake, synaptosomes prepared from the rat hypothalamus; assay: Norepinephrine uptake into synaptosomes; assay type: cell-based
Experimental: (§1) Transporter Binding and Cellular Uptake. All described monoamine transporter binding studies as well as cellular uptake assays were performed in duplicate by CEREP (Celle l'Evescault, France) and are described below. Further details of all assays performed may be accessed at the CEREP web site (world-wide-web at cerep.com). Cellular-based assays were conducted to provide complementary in vitro functional measures to complement the standard transporter assays as well as to provide direct comparisons of the homologs IPH with MPH with regard to DA, NE, and 5-HT uptake in synaptosomal preparations.

[2] = biological target: T1, human carboxylesterase 1 (hCES1) (Homo sapiens, UniProt P23141); assay: Hydrolysis to ritalinic acid by recombinant hCES1 (s9 fraction of transfected cells); assay type: in vitro ADME; conditions: 1 mM substrate, 60 min
T1 construct: expressed in transfected cells
T1 sequence (P23141 18-567): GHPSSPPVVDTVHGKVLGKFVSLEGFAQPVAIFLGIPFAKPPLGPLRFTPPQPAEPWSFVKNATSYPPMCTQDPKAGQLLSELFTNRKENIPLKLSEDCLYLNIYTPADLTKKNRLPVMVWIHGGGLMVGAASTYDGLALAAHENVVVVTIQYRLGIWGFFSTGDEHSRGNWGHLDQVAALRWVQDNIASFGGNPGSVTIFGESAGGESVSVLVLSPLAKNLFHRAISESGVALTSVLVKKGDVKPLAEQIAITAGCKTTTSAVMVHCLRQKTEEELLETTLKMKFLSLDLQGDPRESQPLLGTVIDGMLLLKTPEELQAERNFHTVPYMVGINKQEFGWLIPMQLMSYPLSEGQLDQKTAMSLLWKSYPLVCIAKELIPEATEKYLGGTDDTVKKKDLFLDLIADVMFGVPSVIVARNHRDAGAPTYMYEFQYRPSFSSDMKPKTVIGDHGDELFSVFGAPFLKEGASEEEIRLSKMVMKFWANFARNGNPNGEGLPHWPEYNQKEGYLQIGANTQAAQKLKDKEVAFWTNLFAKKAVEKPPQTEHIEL
Experimental: FIG. 2—Hydrolysis of methylphenidate (MPH) and isopropylphenidate (IPH) by recombinant human CES1, HLM, HIM. After incubation with CES 1 transfected human cells, HLM, and HIM at 37° C. for 60 min, the metabolite RA produced via hydrolysis of MPH and IPH was determined by HPLC. Data are presented as mean±SEM of 3 to 6 independent experiments.
Determination of Relative Hydrolytic Rates of MPH and IPH. The assessment of relative rates of hydrolysis of the two ester compounds utilized both cell culture and human liver microsomes (HLM) and human intestinal microsomes (HIM). The human carboxylesterase 1 (hCES1) s9 fraction was prepared utilizing a novel method developed in the inventors' laboratory previously (Zhu et al., 2008). Hydrolysis of IPH and MPH by hCES1, HLM, and human intestinal microsomes was assessed by incubating the substrates with the respective enzymes and measuring the formation of the major metabolite RA formed via ester hydrolysis. Briefly, 50 μl of freshly prepared substrates (IPH and MPH) was mixed with 50 μl of enzymes in 1.5 ml Eppendorf tubes yielding a total volume of 100 μl. […] Concentrations of the primary hydrolytic product of the two compounds, RA were determined utilizing a validated HPLC method previously described.

[3] = biological target: T2, human norepinephrine (NE) transporter (NET) (Homo sapiens, UniProt P23975); assay: Norepinephrine transporter binding assay ([3H]nisoxetine, CEREP)
T2 construct: host or cells: CHO cells, cell membrane homogenates
T2 sequence (P23975 whole entry): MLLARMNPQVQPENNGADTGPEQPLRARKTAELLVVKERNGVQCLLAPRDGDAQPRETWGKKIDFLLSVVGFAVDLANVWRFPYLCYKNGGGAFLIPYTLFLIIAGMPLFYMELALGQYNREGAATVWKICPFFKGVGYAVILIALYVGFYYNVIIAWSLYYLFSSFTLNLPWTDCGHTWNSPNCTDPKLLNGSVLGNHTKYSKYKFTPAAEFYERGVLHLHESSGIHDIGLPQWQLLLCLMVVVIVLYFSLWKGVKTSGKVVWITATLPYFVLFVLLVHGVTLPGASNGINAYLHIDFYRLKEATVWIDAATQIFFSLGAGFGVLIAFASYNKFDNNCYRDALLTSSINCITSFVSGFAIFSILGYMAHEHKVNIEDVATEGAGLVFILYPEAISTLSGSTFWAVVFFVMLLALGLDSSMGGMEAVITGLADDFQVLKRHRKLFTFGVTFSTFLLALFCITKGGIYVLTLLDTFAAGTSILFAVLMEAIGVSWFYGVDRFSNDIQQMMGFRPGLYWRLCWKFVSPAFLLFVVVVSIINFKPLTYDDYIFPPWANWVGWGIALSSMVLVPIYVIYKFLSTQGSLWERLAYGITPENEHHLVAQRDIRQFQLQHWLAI
Experimental: as §1
Norepinephrine Transporter Binding Assay. Evaluation of the affinity of the two compounds for the human norepinephrine (NE) transporter (NET) in transfected CHO cells was determined in a radioligand assay analogous to the procedures described for the DAT assay. Cell membrane homogenates were incubated for 90 min at 4° C. with 1 nM [^3H]nisoxetine in the absence or presence of each test compound in a standard buffer solution. Nonspecific binding was determined in the presence of 1 μM of desipramine. Following incubation, the samples were filtered rapidly under vacuum and rinsed several times with a buffer solution. The filters were then dried and radioactivity counts were obtained. The results are expressed as percent inhibition of the control radioligand specific binding. The standard reference compound was the tricyclic antidepressant (TCA) protriptyline, which was tested in each experiment at several concentrations to generate a competition curve from which its IC50 was calculated.

hCES1 = biological target: T3, hCES1 (Homo sapiens, UniProt P23141); assay: Transesterification potential in the presence of ethanol, s9 fraction of hCES1-transfected cells; conditions: for effect of ethanol on formation of the hydrolytic product RA: hCES1 s9; for EPH formation with ethanol when hCES1 was not present: incubation with ethanol, no hCES1
T3 sequence (P23141 18-567): T1 sequence (P23141 18-567)
Experimental: FIG. 3—Transesterification potential of isopropylphenidate (IPH) versus methylphenidate (MPH) by s9 fractions of CES1 transfected cells in the presence of ethanol. MPH (1 mM) or IPH (1 mM) was incubated with s9 fractions of hCES1 overexpressing cells (2 mg/ml) in the presence or absence of ethanol (10 mM) at 37° C. for 30 min. The transesterification product EPH and hydrolytic metabolite RA were analyzed utilizing established HPLC assays. […] Data are expressed as mean±SEM of three independent experiments.
An In Vitro Investigation of the Transesterification Potential of Isopropylphenidate versus Methylphenidate in the Presence of Ethanol. The s9 fraction of hCES1-transfected cells, d1-MPH), dl-IPH, and ethanol working solution were prepared in DPBS containing 20 mM HEPES, pH7.4. The reaction was initiated by mixing 200 μl of s9 fraction, 100 μl of substrates (MPH or IPH) and 100 μl of ethanol. The final concentrations of s9 fraction protein, MPH, IPH, and ethanol were 2 mg/ml, 1 mM, 1 mM, and 10 mM, respectively. After incubation at 37° C. for 1 h, the reaction was terminated by adding a four-fold concentration of ice-cold methanol. The samples were then centrifuged at 16,000 g for 5 min, and the resulting supernatant was subjected to HPLC analysis to assess each for the formation and/or concentration of the hydrolytic product of both MPH and IPH, and common metabolite RA. Additionally, the samples were assayed for the presence of the transesterification metabolite ethylphenidate (EPH). Further, the s9 fraction prepared from the vector-transfected cells was included in this study as a control for any non-enzymatic hydrolysis which might occur. The hCES1 mediated MPH and IPH hydrolysis was estimated by deducting the amounts of RA produced in the vector s9 samples from the RA formation observed in the hCES1 s9 samples.

SMILES | % inhibition of control specific binding; [3H]NE incorporation into synaptosomes ([1]; 10 μM) [%] | substrate quality for hCES1 hydrolysis ([2]; 37° C.) | NET affinity of IPH relative to MPH ([3]; 10 μM, inhibition of specific control binding) | % inhibition of control specific binding, NET (h) ([3]; 10 μM, ligand [3H]nisoxetine, transfected CHO cells, HCl salts) [%] | velocity of hCES1-mediated transesterification to EPH (hCES1; 1 mM substrate, 10 mM ethanol, 2 mg/ml s9 protein, 37° C.) [pmole/min/mg protein] | effect of ethanol on formation of the hydrolytic product RA (hCES1; 10 mM ethanol) | EPH formation with ethanol when hCES1 was not present (hCES1) | inhibition at 10 µM ([1]; read-out: % inhibition of control specific binding, [3H]NE incorporation into synaptosomes) [%] | catalytic efficiency of hCES1-mediated hydrolysis, MPH relative to IPH ([2]; 0.5 mg/ml hCES1, 37° C., RA formation by HPLC) | inhibition at 10 µM ([3]; ligand [3H]nisoxetine, transfected CHO cells, HCl salts, read-out: % inhibition of control specific binding, NET (h)) [%]
CC(C)OC(=O)C(c1ccccc1)C1CCCCN1 (racemic) [IPH, dl-threo-α-phenyl-2-piperidineacetic acid isopropyl ester] | 62 | poor substrate of hCES1 | one-third | 27 | 47.5±3.3 | significantly decreased | no EPH formation was observed |  |  | 
COC(=O)C(c1ccccc1)C1CCCCN1 (racemic) [MPH, dl-threo-methylphenidate, reference compound] |  |  |  |  |  | significantly decreased | no EPH formation was observed | 117 | approximately 10 fold | 88
